13 molecules from ChEMBL document CHEMBL1201862, “PubChem BioAssay data set” (2004) can be followed below.

The structures appear in SMILES notation. Activity calls are given as the source filed them. Rule as the data show it, for most assays here: actives have a measured IC50 and inactives only a lower limit.

Format in all cases: functional
For one assay, the system named is SN12K1. The assay can be described thus: cells. Conditions: Homo sapiens.
The test system of the next assay is P388. Put plainly: cells. The following applies: Mus musculus.
Another assay has as its system P388/ADR. The assay can be described thus: cells. The following applies: Mus musculus.
Assay [1] addresses T1, Sentrin-specific protease 8 (Homo sapiens, UniProt Q96LD8).
T1 sequence (Q96LD8 whole entry): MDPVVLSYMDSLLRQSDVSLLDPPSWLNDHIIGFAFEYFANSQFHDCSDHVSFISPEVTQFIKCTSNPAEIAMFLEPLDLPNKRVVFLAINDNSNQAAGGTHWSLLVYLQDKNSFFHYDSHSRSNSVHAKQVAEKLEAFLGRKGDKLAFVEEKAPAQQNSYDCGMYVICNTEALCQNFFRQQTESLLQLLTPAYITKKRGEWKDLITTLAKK
The assay can be described thus: inhibition of human SENP8 cleavage activity – biochemical, luminescence, SAR follow-up (AID 504501).

Assay [2] has as its target T2, Sentrin-specific protease 6 (Homo sapiens, UniProt Q9GZR1).
T2 sequence (Q9GZR1 whole entry): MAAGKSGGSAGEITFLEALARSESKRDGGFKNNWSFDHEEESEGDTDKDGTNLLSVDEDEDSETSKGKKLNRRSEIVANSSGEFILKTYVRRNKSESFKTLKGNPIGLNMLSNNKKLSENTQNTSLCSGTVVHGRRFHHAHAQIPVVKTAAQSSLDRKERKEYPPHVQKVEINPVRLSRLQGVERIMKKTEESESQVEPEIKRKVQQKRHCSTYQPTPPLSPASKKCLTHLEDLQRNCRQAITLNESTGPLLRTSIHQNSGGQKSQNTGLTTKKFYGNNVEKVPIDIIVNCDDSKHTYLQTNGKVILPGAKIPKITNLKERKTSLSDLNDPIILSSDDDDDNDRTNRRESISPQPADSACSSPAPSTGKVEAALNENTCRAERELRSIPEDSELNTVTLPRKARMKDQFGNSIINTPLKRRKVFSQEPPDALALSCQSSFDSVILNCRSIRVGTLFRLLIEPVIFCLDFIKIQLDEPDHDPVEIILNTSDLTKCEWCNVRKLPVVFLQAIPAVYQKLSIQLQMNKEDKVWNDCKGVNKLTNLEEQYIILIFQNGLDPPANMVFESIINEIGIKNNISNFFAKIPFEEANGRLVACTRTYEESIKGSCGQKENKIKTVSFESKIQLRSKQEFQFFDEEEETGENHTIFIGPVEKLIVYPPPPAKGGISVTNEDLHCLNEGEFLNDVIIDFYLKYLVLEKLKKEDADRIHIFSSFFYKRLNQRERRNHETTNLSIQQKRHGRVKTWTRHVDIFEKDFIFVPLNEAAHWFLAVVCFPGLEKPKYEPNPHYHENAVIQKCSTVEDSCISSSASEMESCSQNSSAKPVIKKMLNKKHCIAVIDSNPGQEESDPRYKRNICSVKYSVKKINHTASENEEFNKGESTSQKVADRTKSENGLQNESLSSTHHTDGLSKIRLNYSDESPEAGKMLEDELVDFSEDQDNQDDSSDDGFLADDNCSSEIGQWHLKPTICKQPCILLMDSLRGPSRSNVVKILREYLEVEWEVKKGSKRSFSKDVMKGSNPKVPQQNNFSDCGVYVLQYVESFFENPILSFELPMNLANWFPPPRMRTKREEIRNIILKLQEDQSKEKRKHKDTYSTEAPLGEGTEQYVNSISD
Put plainly: SAR Analysis of small molecule inhibitors of Sentrin-specific protease 6 (SENP6) using a Luminescent assay. [Related pubchem assays (depositor defined):AID2582, AID2599].

In assay [3] the target is T3, Sentrin-specific protease 7 (Homo sapiens, UniProt Q9BQF6).
T3 sequence (Q9BQF6 whole entry): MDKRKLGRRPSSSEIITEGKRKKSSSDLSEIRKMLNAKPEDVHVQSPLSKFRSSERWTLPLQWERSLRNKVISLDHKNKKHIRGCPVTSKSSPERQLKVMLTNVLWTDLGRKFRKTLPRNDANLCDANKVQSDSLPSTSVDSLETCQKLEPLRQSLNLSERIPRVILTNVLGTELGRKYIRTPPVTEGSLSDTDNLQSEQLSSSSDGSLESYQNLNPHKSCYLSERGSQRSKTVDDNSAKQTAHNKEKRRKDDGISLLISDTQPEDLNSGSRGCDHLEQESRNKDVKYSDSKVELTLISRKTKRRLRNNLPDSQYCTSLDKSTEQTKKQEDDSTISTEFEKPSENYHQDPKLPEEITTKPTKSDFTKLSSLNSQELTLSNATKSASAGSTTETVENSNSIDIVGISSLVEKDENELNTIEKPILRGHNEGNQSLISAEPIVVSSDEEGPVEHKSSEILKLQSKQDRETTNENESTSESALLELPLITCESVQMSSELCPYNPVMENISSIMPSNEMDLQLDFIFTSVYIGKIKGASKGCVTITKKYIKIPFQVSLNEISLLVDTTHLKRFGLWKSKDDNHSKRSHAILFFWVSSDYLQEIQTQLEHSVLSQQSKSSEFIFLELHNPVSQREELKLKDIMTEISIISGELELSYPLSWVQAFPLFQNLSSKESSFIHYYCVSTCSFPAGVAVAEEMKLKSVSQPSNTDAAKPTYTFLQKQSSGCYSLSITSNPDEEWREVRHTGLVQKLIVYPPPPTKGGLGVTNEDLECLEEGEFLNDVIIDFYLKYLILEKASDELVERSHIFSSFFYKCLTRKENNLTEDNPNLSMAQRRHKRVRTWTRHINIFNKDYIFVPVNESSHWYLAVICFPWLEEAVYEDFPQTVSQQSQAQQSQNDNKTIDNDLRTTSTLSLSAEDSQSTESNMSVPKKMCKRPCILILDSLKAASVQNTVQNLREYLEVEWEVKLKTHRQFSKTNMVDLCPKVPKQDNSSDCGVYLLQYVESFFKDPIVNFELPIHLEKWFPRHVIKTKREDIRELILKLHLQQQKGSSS
Put plainly: inhibition of human SENP7 cleavage activity – biochemical, luminescence, SAR follow-up (AID 504497).

In assay [4] the target is T4, Caspase-3 (Homo sapiens, UniProt P42574).
T4 sequence (P42574 whole entry): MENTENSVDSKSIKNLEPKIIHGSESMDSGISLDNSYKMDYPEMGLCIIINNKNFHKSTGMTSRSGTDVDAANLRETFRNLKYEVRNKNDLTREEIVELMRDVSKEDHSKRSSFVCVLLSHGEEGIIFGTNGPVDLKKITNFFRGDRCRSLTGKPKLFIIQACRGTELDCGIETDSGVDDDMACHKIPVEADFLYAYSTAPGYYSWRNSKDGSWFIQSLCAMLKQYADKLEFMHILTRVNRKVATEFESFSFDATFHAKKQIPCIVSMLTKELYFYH
Put plainly: SAR Analysis of small molecule inhibitors of Sentrin-specific proteases (SENPs) using a Caspase-3 Selectivity assay. [Related pubchem assays (depositor defined):AID2540, AID2599, AID434973, AID489001].

Assay [5] has as its target T1, Sentrin-specific protease 8.
Assay [6] deals with T3, Sentrin-specific protease 7.
The target of assay [7] is T2, Sentrin-specific protease 6.
Assay [8] has as its target T4, Caspase-3.
Assay [9] can be described thus: Luminescence Cell-Based Dose Retest to Confirm Inhibitors of Cancer Stem Cells. [Related pubchem assays (depositor defined):AID2717, AID2721]. Conditions: Homo sapiens.
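For AC50 in this document: cells exposed to compound for roughly 70 hours or longer before luminescence read.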

As to `O=C(O)/C=C/c1c[nH]c(=O)[nH]c1=O`, the GI50 with SN12K1, with P388 and in the assay with P388/ADR was > 500 µM (inactive) each time.
As to `O=C(Nc1ccc(F)c(F)c1)c1ccc2c(c1)OCO2`, the 50% inhibitory concentration (IC50) in assay [1] was 8.53 µM (active); in [2], 8.66 µM (active); in assay [3], 2.85 µM (active); at Caspase-3 [4] it was 3.11 µM (active).
`O=C1/C(=C/c2cccc(F)c2)Oc2cc(O)ccc21`: the IC50 is 15.8 µM (active) in assay [1]; 2.29 µM (active) in assay [5]; 12 µM (active) in [2]; 4.4 µM (active) in [3]; 6.09 µM (active) in assay [6]; 15.9 µM (active) in assay [7]. The results for the IC50 at Caspase-3 [4] and at Caspase-3 [8] were 9.25 µM (active) and 18.2 µM (active), respectively.
Take `N#Cc1c(NC(=O)c2ccc(Cn3cc(Br)cn3)o2)sc2c1CCCCC2`: the IC50 (in assay [1]; in [2]; in [3]; at Caspase-3 [4]) was > 99 µM (inactive) in each case. For the same molecule, the concentration at half-maximal activity (AC50) in assay [9] is 2.97 µM (active).
In the case of `COc1cc(OC)cc(C(=O)Nc2ccc(Nc3ccccc3)cc2)c1`, the concentration for half-maximal inhibition (IC50) in assay [5] was 22.5 µM (active); in [6] it was 5.27 µM (active); in assay [7], 17.8 µM (active); at Caspase-3 [8], 30.3 µM (active). Also, the AC50 in assay [9] was 4.09 µM (active).
In the case of `Cc1nc(Nc2ccc(C(=O)O)cc2)sc1-c1ccccc1`, the half-maximal inhibitory concentration (IC50) is 1.88 µM (active) in assay [5], 0.797 µM (active) in assay [6], 0.787 µM (active) in [7] and 10.9 µM (active) on Caspase-3 [8].
Take `Nc1nc(N)c2nc(CNc3ccc(C(=O)NC(CCCNC(=O)c4ccccc4C(=O)O)C(=O)O)cc3)cnc2n1` (stereo unspecified): the GI50 with SN12K1, with P388 and in the assay with P388/ADR was < 0.01 µM (active) each time.
With `O=C(Nc1nc2ccc(Cl)cc2s1)c1ccc(C(F)(F)F)cc1`, the IC50 (in assay [1]; in assay [2]; in assay [3]; on Caspase-3 [4]) was > 99 µM (inactive) throughout.
Turning to `CC(=O)Oc1ccccc1/C=C(\C)c1noc(-c2ccccc2O)n1`, the IC50 (in [1]; in [2]; in [3]; at Caspase-3 [4]) was > 99 µM (inactive) throughout.
Take `C[C@@]1(CO)[C@H](O)CC[C@@]2(C)[C@H]1CC[C@H]1C[C@@H]3C[C@@]12CC[C@@]3(O)COC(=O)CN`: the GI50 with P388 was 1.11 µM (active); in the assay with P388/ADR, 0.481 µM (active).
`CCOC(=O)C(C)N1C(=O)c2ccccc2S1(=O)=O` (stereo unspecified): the GI50 in the assay with SN12K1, with P388 and in the assay with P388/ADR was > 100 µM (inactive) in each case.
On to `Cc1c2cnccc2c(C)c2c1c1ccccc1n2CCCCCCCl`, for which the GI50 is 30 µM (inactive) in the assay on SN12K1, 1.77 µM (inactive) in the assay with P388 and 22.8 µM (inactive) in the assay on P388/ADR.
Consider `CCCCCCCC/C=C\CCCCCCCCCCCC(=O)O` [ERUCIC ACID], for which the GI50 is 9.62 µM (inactive) in the assay on SN12K1, 11.2 µM (inactive) in the assay with P388 and 14.4 µM (inactive) with P388/ADR.

The term GI50 denotes the concentration giving 50% growth inhibition. For orientation: IC50 means the concentration needed to halve the response being measured. As a reminder, the AC50 is the midpoint of the concentration-response curve, whichever way the signal moves.
